In assay [1] the test system is H1299 human lung cancer cells. Description: H1299 cells survival after cigarette smoke (CS) exposure with/without saliva, Trypan Blue exclusion test. Type of assay: cell-based.
Protocol: During smoke exposure, the cells were put into a smoking sealed chamber (33.5 cm^3) with CS pressure of 0.3 Bar. Control cells were subjected to the same procedures, but exposed only to fresh air. Cells were exposed to CS for one “puffs” every 15 minute for a 2 hours (120 minutes) period (unless indicated otherwise). Cells were used when it becomes confluent and the medium (with/without saliva) volume was compatibly to the dish in use.
The H1299 cells viability was measured at various time points by Trypan Blue exclusion test, both in exposed and control cells.
The medium covering the dish was collected and cells were trypsinized and centrifuged at 1200×g for 10 minutes. Cell pellets were re-suspended in 1 mL of medium and a sample was collect for cell counting. Cells were stained with the vital dye Trypan Blue at final concentration of 0.25% and were placed on hemocytometer. Visual counting was preformed by inverted microscope.
H1299 cells were incubated for 120 minutes with or without the presence of saliva in the culture medium and exposed to CS. […] Cell viability was evaluated by Trypan blue exclusion dye assay.
In a further assay the test system is p53. Description: Total p53 expression levels, Western blot analysis. In kind it is cell-based, human. To be noted: 2 mM GSH, exposure of CS 120 minutes and 33% saliva (FIG. 17). A general note: In western blotting, separated proteins are transferred to a membrane and probed.
Assay [2] relates to H1299 cells. Description: Cell viability by Propidium Iodide (PI) fluorescence, flow cytometry, after CS exposure. To be noted: mean ± SD, n = 4. In kind it is cell-based, human. As for the experimental part:
FACS was used to monitor cell-cycle and cell-viability after CS exposure with/without saliva presence. After cells were exposed to ROS attack, medium covering the cells was removed and cells were trypsinized. For cell viability, cell suspension was centrifuged at 1200×g for 10 minutes and the pellets were re-suspended in 0.5 ml of 10 μg/ml Propidium iodide (PI) and incubated for 15 minutes at dark condition, 4° C. The cell suspensions were thereafter analyzed with a flow cytometer, using CellQuest software. […] PI is excluded by viable cells, and penetrates to cell membranes of dead cells. H1299 cells were incubated for 120 minutes with or without the presence of saliva in the culture medium and exposed to CS. […] Cell viability was evaluated by fluorescence assay.
(In general: A flow cytometer gives signals particle by particle.)

The subject of another assay is H1299 lung cells. Description: Mitochondrial oxidative damage, NAO binding to cardiolipin by flow cytometry. In kind it is cell-based, human. The following applies: 5 mM agent, 120 minutes of CS exposure (FIG. 15). As for the experimental part:
(§1) For mitochondrial oxidative damage, pellets were re-suspended in 0.5 ml of 10 μg/ml 10-N-nonyl acridine orange (NAO) and incubated for 30 minutes at 37° C. and dark condition. Mitocondrial membrane potential was measured after staining cells with 1 μg/ml JC-1 (5,5′,6,6′-tetrachloro-1,1′,3,3′-tetraethylbenzimidazolyl carbocyanine iodide; Molecular Probes) for 30 minutes at 37° C. in the dark. Uncoupling with carbonyl cyanide p-trifluoromethoxyphenylhydrazone (FCCP) (20 µM for 30 minutes) was used as positive control.
The mitochondrial quality is the amount of all the intra-cellular mitochondria and their content, and it is an important index of mitochondrial injury. Nonyl-Acridine Orange (NAO) is a fluorescent dye that can bind specifically to unoxidizable cardiolipin (CL), a mitochondrial phospholipid, independent of the mitochondria energetic state (ΔΨm). NAO lost its affinity for CL with a hydroperoxide fatty acid (CL-OOH).
NAO flow cytometry was used to measure the quality of H1299 lung cells exposed for 120 minutes to CS with or without saliva.

Assay [3] deals with H1299 cells. Description: Protein carbonyl assay (ELISA) on H1299 cells exposed to CS. Type of assay: cell-based, human. The following applies: 5 mM PenA. As to the method: Protein carbonyl concentration was determined by enzyme-linked immunosorbent assay (ELISA), using the Zentech PC Test Kit (Zenith Technology, Dunedin, New Zealand). Briefly, protein cell extractions were allowed to react with a dinitrophenylhydrazine (DNP) solution (200 μl). The DNP-reacted proteins bound non-specifically to an ELISA plate, and the unconjugated DNP and non-protein entities were washed away. The adsorbed DNP-protein was then probed with an anti-DNP-biotin antibody, followed by a streptavidin-linked HRP probe. Then the […] reagent that contained peroxide was added to catalyze the oxidation of TMB. Finally, the reaction was stopped by the addition of a stopping reagent (acid, provided with the kit), and the absorbance was measured for each well at 450 nm using a spectrophotometer. Along with controls and samples, protein carbonyl standards were also included in the assay. The content of the carbonyl protein in the mitochondrial samples was determined as pmol/mg protein, using the standard curve.

Assay [4] has as its system oral cancer cells (SCC-25). The assay can be described thus: Oral cancer cells (SCC-25) survival after CS exposure with/without saliva, Trypan blue assay. Type of assay: cell-based. To be noted: 5 mM PenA, CS 120 minutes. An excerpt:
In FIG. 18A, (n=14) and (p=0.0024) and in […], (n=7) and (p=0.015).
Similar results were obtained with oral cancer cells (SCC-25).

A further assay has as its system H1299 lung cancer cells. The assay can be described thus: Mitochondrial membrane potential (ΔΨm), JC-1 incorporation by flow cytometry. Type of assay: cell-based, human. To be noted: 5 mM agent. As for the experimental part: as §1
Mitochondrial membrane permeabilization is an essential step leading to apoptosis. Disruption of ΔΨm irreversibly commits cells to undergo death and is an early marker of apoptosis. Furthermore, cigarette smoke was previously shown to induce mitochondrial depolarization in human monocytes. Therefore, reduced ΔΨm, as measured by diminished incorporation of the fluorescent dye JC-1, was used as an early indicator for CS-induced apoptosis.
H1299 lung cancer calls were exposed for 120 minutes to CS with or without saliva. […] JC-1 incorporation was measured by flow cytometry method.

The structures appear in SMILES notation.

Protocol for p53: Western blot analysis was used to assay the protein expression levels of the P53, using β-actin signal as a loading reference. Samples with equal amount of protein (20 μg protein/lane) were prepared in 2× sample buffer (0.125 M 2-amino-2-(hydroxymethyl)propane-1,3-diol (Tris)-HCl, pH 6.8, glycerol (20% v/v), SDS (4% w/v), 0.14 M β-mercaptoethanol and bromophenol blue (0.005% w/v)). The samples were boiled for 10 minutes and subjected to electrophoresis through 12% SDS-polyacrylamide gel in running buffer, or stored at −20° C. until further use. The gels were then electrophoretically transferred to nitrocellulose membranes for 90 minutes at 90 W, in transfer buffer containing 20 mM Tris-HCl, pH 6.8, 150 mM Glycine and 20% (v/v) methanol. Blots were blocked in 5% non-fat milk in PBS-T (62.5 mM sodium phosphate buffer, pH 7.4, containing 100 mM NaCl and 0.1% (v/v) Tween-20) and then incubated for 2 hours or overnight at 4° C. with rabbit antihuman p53 1:5000 or mouse antihuman β-actin 1:15000. […] Binding of antibodies to the membrane was detected with an EZ-ECL-detection reagent, X-Omat blue XB-1 Kodak scientific Imaging Film for 10 seconds-15 minutes.
The effect of CS on p53 accumulation was analyzed. […] Western blot analysis was performed and the amount of p53 was evaluated.

`CC(=O)N(O)CCCCCNC(=O)CCC(=O)N(O)CCCCCNC(=O)CCC(=O)N(O)CCCCCN` [DES, deferoxamine] yielded a cellular death rate in assay [1] (5 mM DES, CS 120 minutes and saliva (FIG. 12)) of 20.5%.

In the case of `N[C@@H](CCC(=O)N[C@@H](CS)C(=O)NCC(=O)O)C(=O)O` [GSH, L-c-glutamyl-L-cysteinyl-glycine], in the assay with p53, the “prevention of p53 downregulation (in words)” value is given as “totally preventing”. Moreover, the “protection of cell survival (in words)” value in assay [1] (2 mM GSH, CS exposure alone, no saliva) was “no additional protection”. In addition, the “increase of cell survival” value in assay [1] (2 mM GSH, CS exposure, saliva-containing medium (30% v/v) (FIG. 9)) is “more than 50%”.

For the compound `CC(C)(S)[C@@H](N)C(=O)O` [PenA, D-penicillamine], the “Positive dead cells (%)” value amounted to 2.33% with H1299 cells [2] (CS 120 minutes + 5 mM PenA + saliva); 2.98% in the assay with H1299 cells [2] (CS 120 minutes + 5 mM PenA, no saliva); 4.15% in the assay on H1299 cells [2] (Medium + 5 mM PenA + saliva, no CS); 3.75% with H1299 cells [2] (Medium + 5 mM PenA, no CS, no saliva). Also, the “amount of NAO bound to mitochondrial CL (in words)” value with H1299 lung cells is “the same”. Besides, in assay [1] (1 mM and 5 mM PenA, CS exposure, medium or medium + 30% saliva (FIG. 7)), the “effect on survival rate, 1 mM versus 5 mM (in words)” value is given as “dose-dependent effect”. In addition, in assay [1] (5 mM PenA, 120 minutes of exposure to CS, medium without saliva), the “reduction of cells loss” value was 25%. Further, the survival rate in assay [1] (5 mM PenA, CS 120 minutes, medium + 30% saliva (FIG. 7)) was 76.4%; in assay [1] (5 mM PenA, CS 120 minutes, medium alone, no saliva (FIG. 7)), 75.5%. For the same compound, the “reduction of cells loss (in words)” value in assay [1] (5 mM PenA, saliva supplemented to the medium prior to exposure to CS) was “Reduction of cells loss was also observed”. For the same compound, the “increase of cells survival” value in assay [1] (PenA, CS 120 minutes, medium alone, percent of control (FIG. 6A)) was 12%. Moreover, in assay [1] (PenA, CS 120 minutes, saliva-containing medium (30% v/v), percent of control (FIG. 6A)), the “increase of cell survival” value was determined as 20%. The protein carbonyl content is 4.02 nmol/mg protein with H1299 cells [3] (CS 60 minutes and saliva (FIG. 11)); 4.45 nmol/mg protein with H1299 cells [3] (CS 60 minutes, medium alone (FIG. 11)). Also, the survival loss in assay [4] (absence of saliva (FIG. 18A)) is listed as 23%; in assay [4] (saliva added to medium (FIG. 18B)), 22%. The “protection against ΔΨm losses (in words)” value with H1299 lung cancer cells (CS 120 minutes alone, no saliva (FIG. 14)) was “strong protection”; in the assay on H1299 lung cancer cells (CS 120 minutes and 33% saliva (FIG. 14)) it was “no significant change”.

Source of the values: patent US20120012123A1, “COMPOSITIONS, ARTICLES AND METHODS FOR PREVENTING OR REDUCING TOBACCO-ASSOCIATED DAMAGE” (Technion Research & Development Foundation Ltd., priority 2007, published 2012).
